Measured values from patent US7635716B2, “Substituted cyclopentanes or cyclopentanones as therapeutic agents” (Allergan, Inc., priority 2005, dated 2009).
Where two headings read alike, the source gives them in different places.

Key:
Test in all cases: FLIPR calcium signal, HEK-293(EBNA) cells
Assay type in all cases: cell-based
hEP3A/Gqi5 = target: T1, hEP3A/Gqi5 (Homo sapiens, UniProt P43115)
T1 construct: expressed in transfected cells; host or cells: HEK-293(EBNA) cells
T1 sequence (P43115 1-390): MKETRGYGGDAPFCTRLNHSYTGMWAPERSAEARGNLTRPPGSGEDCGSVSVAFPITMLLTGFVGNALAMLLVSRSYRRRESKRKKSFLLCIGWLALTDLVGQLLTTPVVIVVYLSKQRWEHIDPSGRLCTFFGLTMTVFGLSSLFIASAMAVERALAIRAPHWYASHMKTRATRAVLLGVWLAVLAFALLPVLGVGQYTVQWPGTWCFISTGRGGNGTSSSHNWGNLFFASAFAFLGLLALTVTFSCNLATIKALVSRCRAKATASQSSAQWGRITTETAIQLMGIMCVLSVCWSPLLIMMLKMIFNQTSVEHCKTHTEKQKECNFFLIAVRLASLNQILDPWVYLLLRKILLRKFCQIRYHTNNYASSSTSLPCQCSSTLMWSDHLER

hEP4/Gqs5 = target: T2, hEP4/Gqs5 (Homo sapiens, UniProt P35408)
T2 construct: expressed in transfected cells; host or cells: HEK-293(EBNA) cells
T2 sequence (P35408 whole entry): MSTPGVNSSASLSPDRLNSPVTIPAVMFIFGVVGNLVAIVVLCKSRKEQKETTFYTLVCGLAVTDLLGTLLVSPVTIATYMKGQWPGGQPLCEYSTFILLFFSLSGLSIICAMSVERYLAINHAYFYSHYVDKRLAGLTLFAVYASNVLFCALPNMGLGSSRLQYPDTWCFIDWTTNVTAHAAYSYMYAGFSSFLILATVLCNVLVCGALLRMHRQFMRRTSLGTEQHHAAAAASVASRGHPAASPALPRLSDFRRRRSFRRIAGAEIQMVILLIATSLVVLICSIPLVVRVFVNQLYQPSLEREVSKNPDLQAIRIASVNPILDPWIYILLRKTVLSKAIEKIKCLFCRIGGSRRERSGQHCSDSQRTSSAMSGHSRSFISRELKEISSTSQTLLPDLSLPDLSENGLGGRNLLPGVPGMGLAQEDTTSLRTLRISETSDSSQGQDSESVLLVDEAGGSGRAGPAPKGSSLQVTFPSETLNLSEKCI
Procedure, shortened: (§1)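 Peak Fluo-4 fluorescence (2 µM dye loading, 45 min) was recorded in HEK-293(EBNA) cells stably expressing each human receptor, in HBSS-HEPES pH 7.4 at 37 °C. Signals were expressed relative to buffer and standard agonist controls: PGE2 (EP2, EP4), PGF2 (FP), carbacyclin (IP). Compounds were tested at 10^−5 M or from 10^−5 to 10^−11 M, in duplicate, n≧3.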

hEP2/Gqs5 = target: T3, hEP2/Gqs5 (Homo sapiens, UniProt P43116)
T3 construct: expressed in transfected cells; host or cells: HEK-293(EBNA) cells
T3 sequence (P43116 whole entry): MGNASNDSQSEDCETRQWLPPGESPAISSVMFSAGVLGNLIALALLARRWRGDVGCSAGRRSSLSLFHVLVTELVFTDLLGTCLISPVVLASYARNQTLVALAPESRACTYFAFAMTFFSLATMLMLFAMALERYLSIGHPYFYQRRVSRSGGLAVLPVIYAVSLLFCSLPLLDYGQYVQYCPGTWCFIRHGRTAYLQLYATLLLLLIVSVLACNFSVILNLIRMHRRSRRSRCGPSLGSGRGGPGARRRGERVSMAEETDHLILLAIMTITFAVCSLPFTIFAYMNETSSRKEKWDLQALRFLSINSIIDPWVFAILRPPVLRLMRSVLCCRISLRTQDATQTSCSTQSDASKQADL
Procedure, shortened: as §1

hTP = target: T4, hTP (Homo sapiens, UniProt P21731)
T4 construct: expressed in transfected cells; host or cells: HEK-293(EBNA) cells
T4 sequence (P21731 1-343): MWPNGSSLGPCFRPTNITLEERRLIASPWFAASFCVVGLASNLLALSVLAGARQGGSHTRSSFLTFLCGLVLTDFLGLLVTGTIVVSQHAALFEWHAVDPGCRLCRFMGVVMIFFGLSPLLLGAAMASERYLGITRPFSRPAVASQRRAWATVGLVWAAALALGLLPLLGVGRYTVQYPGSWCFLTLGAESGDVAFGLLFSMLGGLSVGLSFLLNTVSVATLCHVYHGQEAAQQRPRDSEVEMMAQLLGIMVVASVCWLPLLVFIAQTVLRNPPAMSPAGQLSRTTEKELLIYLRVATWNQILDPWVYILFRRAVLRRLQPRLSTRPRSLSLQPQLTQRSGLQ

hEP1 = target: T5, hEP1 (Homo sapiens, UniProt P34995)
T5 construct: expressed in transfected cells; host or cells: HEK-293(EBNA) cells
T5 sequence (P34995 1-402): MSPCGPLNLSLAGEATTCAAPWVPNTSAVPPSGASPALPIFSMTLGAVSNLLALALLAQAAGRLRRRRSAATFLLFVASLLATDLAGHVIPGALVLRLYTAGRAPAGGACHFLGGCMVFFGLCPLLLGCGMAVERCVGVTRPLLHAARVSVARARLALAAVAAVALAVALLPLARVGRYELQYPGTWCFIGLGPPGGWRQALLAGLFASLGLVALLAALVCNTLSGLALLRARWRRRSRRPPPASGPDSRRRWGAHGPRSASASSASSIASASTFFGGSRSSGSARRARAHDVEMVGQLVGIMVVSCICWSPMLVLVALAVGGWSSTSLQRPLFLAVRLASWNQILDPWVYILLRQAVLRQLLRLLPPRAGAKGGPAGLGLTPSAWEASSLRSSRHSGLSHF

[1] = Table 1, first part, data represents a single experiment, read-out: functional data (EC50) hEP3A*
[2] = Table 1, second part, quantity not given, values match functional data (EC50) of first part, read-out: Other Receptors hEP3
[3] = Table 1, first part, triplicate, read-out: functional data (EC50) hEP4
[4] = Table 1, first part, triplicate, read-out: functional data (EC50) hEP2
[5] = Table 1, first part, triplicate, read-out: functional data (EC50) hTP
[6] = Table 1, second part, quantity not given, values match functional data (EC50) of first part, read-out: Other Receptors hTP
[7] = Table 1, first part, triplicate, read-out: functional data (EC50) hEP1
[8] = Table 1, second part, quantity not given, values match functional data (EC50) of first part, read-out: Other Receptors hEP1
[9] = Table 1, second part, read-out: hEP4 flipr EC50
[10] = Table 1, second part, read-out: hEP2 flipr EC50

Row | Molecule | EC50 (hEP3A/Gqi5; [1]) | EC50 (hEP3A/Gqi5; [2]) | EC50 (hEP4/Gqs5; [3]) | EC50 (hEP2/Gqs5; [4]) | EC50 (hTP; [5]) | EC50 (hTP; [6]) | EC50 (hEP1; [7]) | EC50 (hEP1; [8]) | EC50 (hEP4/Gqs5; [9]) | EC50 (hEP2/Gqs5; [10])
1 | O=C(O)CCCCCC[C@H]1C(=O)CC[C@@H]1COc1ccccc1 [Example 6, 7-((1R,5S)-2-Oxo-5-phenoxymethyl-cyclopentyl)-heptanoic acid] | 3.55 µM | 3.55 µM | 7.88 µM | 0.731 µM | > 10 µM | > 10 µM | – | – | – | –
2 | O=C(O)CCC/C=C\C[C@@H]1[C@@H](COc2ccccc2)[C@H](O)C[C@H]1Cl [Example 8, (Z)-7-((1R,2S,3R,5R)-5-Chloro-3-hydroxy-2-phenoxymethyl-cyclopentyl)-hept-5-enoic acid] | 7.33 µM | 7.33 µM | 3.2 µM | 0.23 µM | > 10 µM | > 10 µM | > 10 µM | > 10 µM | – | –
3 | O=C(O)CCCCCC[C@@H]1[C@@H](COc2ccccc2)[C@H](O)C[C@H]1Cl [Example 10, 7-((1R,2S,3R,5R)-5-Chloro-3-hydroxy-2-phenoxymethyl-cyclopentyl)-heptanoic acid] | 3.51 µM | 3.51 µM | 7.21 µM | 0.123 µM | > 10 µM | > 10 µM | > 10 µM | > 10 µM | – | –
4 | O=C(O)CCC/C=C\C[C@@H]1[C@@H](COc2cc(Cl)cc(Cl)c2)[C@H](O)C[C@H]1Cl [Example 12, (Z)-7-[(1R,2S,3R,5R)-5-Chloro-2-(3,5-dichloro-phenoxymethyl)-3-hydroxy-cyclopentyl]-hept-5-enoic acid] | 1.26 µM | 1.26 µM | 0.048 µM | 0.0008 µM | > 10 µM | > 10 µM | > 10 µM | > 10 µM | 0.048 µM | 0.0008 µM
5 | O=C(O)CCCCCC[C@@H]1[C@@H](COc2cc(Cl)cc(Cl)c2)[C@H](O)C[C@H]1Cl [Example 14, 7-[(1R,2S,3R,5R)-5-Chloro-2-(3,5-dichloro-phenoxymethyl)-3-hydroxy-cyclopentyl]-heptanoic acid] | 3.49 µM | 3.49 µM | 0.152 µM | 0.024 µM | > 10 µM | > 10 µM | > 10 µM | > 10 µM | – | –
6 | (Z)-7-((1R,2S,3R)-3-Hydroxy-5-oxo-2-phenoxymethyl-cyclopentyl)-hept-5-enoic acid [Example 4] | 18.5 µM | – | > 10 µM | 5.15 µM | > 10 µM | – | > 10 µM | – | 0.36 µM | > 10 µM
7 | (Z)-7-((1R,5S)-2-Oxo-5-phenoxymethyl-cyclopent-3-enyl)-hept-5-enoic acid [Example 3] | – | 18.5 µM | 0.36 µM | > 10 µM | – | > 10 µM | – | > 10 µM | > 10 µM | 5.15 µM
